Data reported in ChEMBL document CHEMBL1159165, “Novel, selective mechanism-based inhibitors of the herpes proteases” (Bioorg Med Chem Lett, 1996).

How the values were obtained:
Human betaherpesvirus 5 [1] = assay: Compound was evaluated for inhibitory activity against human cytomegalovirus (HCMV) protease at dose of 10 uM; type: functional
[2] = Compound was evaluated for inhibitory activity against herpes simplex type 2 protease (HSV-2 pr) at dose of 10 uM; conditions: Human alphaherpesvirus 2
Human betaherpesvirus 5 [3] = assay: Compound was evaluated for inhibitory activity against human cytomegalovirus (HCMV) protease.; type: functional
[4] = Compound was evaluated for inhibitory activity against elastase at dose of 100 uM
[5] = biological target: Serine protease 1 (Homo sapiens) (UniProt P07477); assay: Compound was evaluated for inhibitory activity against trypsin at dose of 100 uM
Chain of Serine protease 1 (Homo sapiens) (P07477 whole entry): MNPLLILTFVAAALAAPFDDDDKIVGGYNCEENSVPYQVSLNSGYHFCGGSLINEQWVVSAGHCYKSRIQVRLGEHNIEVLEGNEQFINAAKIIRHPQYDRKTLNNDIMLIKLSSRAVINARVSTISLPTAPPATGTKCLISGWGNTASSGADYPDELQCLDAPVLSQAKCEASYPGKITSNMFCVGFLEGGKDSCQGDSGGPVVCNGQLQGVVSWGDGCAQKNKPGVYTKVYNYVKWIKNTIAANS

Human betaherpesvirus 5 [6] = assay: Compound was evaluated for inhibitory activity against human cytomegalovirus (HCMV) protease 10 uM; type: functional
[7] = Compound was evaluated for inhibitory activity against Chymotrypsinogen at dose of 100 uM
[8] = Compound was evaluated for inhibitory activity against Chymotrypsinogen at dose of 22 uM

Row | SMILES | inhibition [2] [%] | IC50 (Human betaherpesvirus 5 [3]) [nM] | inhibition [4] [%] | other results
1 | CCOP(=O)(OCC)ON1C(=O)/C(=C/c2ccccc2)N=C1c1ccccc1 | 5 | – | – | inhibition at 10 µM (Human betaherpesvirus 5 [1]): 20%
2 | CC(=O)ON1C(=O)/C(=C/c2ccccc2)N=C1c1ccccc1 | 14 | – | – | inhibition at 10 µM (Human betaherpesvirus 5 [1]): 35%
3 | CC(=O)n1cc([C@H]2C[C@@]23N=C(c2ccccc2)OC3=O)c2ccccc21 | – | 160 | – | –
4 | CC1=N[C@@]2(C[C@@H]2c2ccccc2)C(=O)O1 | – | – | 82 | inhibition [5]: 88%
5 | O=C1OC(c2ccccc2)=N[C@@]12C[C@H]2c1ccccc1 | 24 | – | – | inhibition at 10 µM (Human betaherpesvirus 5 [1]): 85%
6 | COc1ccc(S(=O)(=O)ON2C(=O)/C(=C/c3ccccc3)N=C2c2ccccc2)cc1 | 20 | 2300 | – | –
7 | CC(=O)Oc1ccc([C@H]2C[C@@]23N=C(c2ccccc2)OC3=O)cc1 | – | 1100 | – | –
8 | O=C1OC(c2ccccc2)=NC12CC2 | 71 | – | – | Inhibition (Human betaherpesvirus 5 [6]): 16%
9 | CS(=O)(=O)ON1C(=O)/C(=C/c2ccccc2)N=C1c1ccccc1 | – | 400 | 33 | –
10 | COc1ccc([C@H]2C[C@@]23N=C(c2ccccc2)OC3=O)cc1 | – | 200 | 35 | inhibition [7]: 92%; inhibition [5]: 64%
11 | O=C1OC(c2ccccc2)=N[C@@]12C[C@@H]2c1ccccc1 | – | 1800 | 42 | inhibition [8]: 92%; inhibition [5]: 63%
